Test results from patent US6689801B2, “Certain heteroaryl substituted thiol inhibitors of endothelin-converting enzyme” (Novartis AG, priority 1998, dated 2004).

| SMILES | melting point [°C] |
| --- | --- |
| CC(C)C[C@H](S)C(=O)NC(C)(C)C(=O)N[C@@H](Cc1ccc(-c2ccsc2)nc1)C(=O)O (stereo in doubt) [Example 2(k), 2-[2-(2-Mercapto-4-methyl-pentanoylamino)-2-methyl-propionylamino]-3-[6-(thien-3-yl)-pyridin-3-yl]-propionic acid] | 218 to 220 |
| CSCCC(S)C(=O)NC1(C(=O)NC(Cc2ccc(-c3ccoc3)nc2)C(=O)O)CCCC1.Cl (stereo not drawn) | 150 to 153 |
| Cc1noc(C)c1-c1nc(CC(NC(=O)C2(NC(=O)[C@@H](S)C(C)C)CCCC2)C(=O)O)no1 (stereo in doubt) [Example 1(g), 3-[5-(3,5-Dimethyl-isoxazol-4-yl)-[1,2,4]oxadiazol-3-yl]-2-{[1-(2-mercapto-3-methyl-butanoylamino)-cyclopentanecarbonyl]-amino}-propionic acid] | 170 to 172 |
| CC[C@H](C)[C@H](S)C(=O)NC1(C(=O)NC(Cc2ccc(-c3ccccc3)s2)C(=O)O)CCCC1 (stereo in doubt) [Example 1(b), 2-{[1-(2-Mercapto-3-methyl-pentanoylamino)-cyclopentanecarbonyl]-amino}-3-(5-phenyl-thien-2-yl)-propionic acid] | 131 to 133 |
| CC[C@H](C)C(S)C(=O)NC1(C(=O)NC(Cc2ccc(-c3ccsc3)nc2)C(=O)O)CCCC1 (stereo in doubt) [Example 2(b), 2-{[1-(2-Mercapto-3-methyl-pentanoylamino)-cyclopentanecarbonyl]-amino}-3-[6-(thien-3yl)-pyridin-3-yl]-propionic acid] | 200 to 202 |
| CC(C)C[C@H](S)C(=O)NC1(C(=O)N[C@@H](Cc2cnc(-c3ccc(F)c(Cl)c3)s2)C(=O)O)CCCC1 (stereo in doubt) [Example 1(f), 3-[2-(3-Chloro-4-fluoro-phenyl)-thiazol-5-yl]-2-{[1-(2-mercapto-4-methyl-pentanoylamino)-cyclopentanecarbonyl]-amino}-propionic acid] | 96 to 98 |
| CC(C)C[C@H](S)C(=O)NC1(C(=O)NC(Cc2ccc(-c3ccoc3)nc2)C(=O)O)CCCC1 (stereo in doubt) [Example 2(dd), 3-[6-(Furan-3-yl)-pyridin-3-yl]-2-{[1-(2-mercapto-4-methyl-pentanoylamino)-cyclopentanecarbonyl]-amino}-propanoic acid] | 190 to 193 |
| CC(C)C[C@H](NC(=O)[C@@H](S)CC(C)C)C(=O)N[C@@H](Cc1ccc(-c2cccs2)nc1)C(=O)O (stereo in doubt) [Example 2(aa), 2-[2-(2-Mercapto-4-methyl-pentanoylamino)-4-methyl-pentanoylamino]-3-[6-(thien-2-yl)-pyridin-3-yl]-propionic acid] | 156 to 158 |
| CC(C)[C@H](S)C(=O)NC1(C(=O)NC(Cc2cc(-c3ccccc3)cs2)C(=O)O)CCCC1 (stereo partly drawn) [Example 1(c), 2-{[1-(2-Mercapto-3-methyl-butanoyllamino)-cyclopentanecarbonyl]-amino}-3-(4-phenyl-thien-2-yl)-propionic acid] | 158 to 164 |
| CCCC(S)C(=O)NC1(C(=O)NC(Cc2ccc(-c3cccs3)nc2)C(=O)O)CCCC1.Cl (stereo not drawn) | 165 to 167 |
| CC(C)C[C@H](S)C(=O)N[C@@H](Cc1ccc(Br)nc1)C(=O)N[C@@H](Cc1ccc(-c2cccs2)nc1)C(=O)O (stereo in doubt) [Example 2(bb), 2-[3-(6-Bromo-pyridin-3-yl)-2-(2-mercapto-4-methyl-pentanoylamino)-propionylamino]-3-[6-(thien-2-yl)-pyridin-3-yl]-propionic acid] | 194 to 195 |
| Cc1noc(C)c1-c1nc(CC(NC(=O)C2(NC(=O)[C@@H](S)CC(C)C)CCCC2)C(=O)O)no1 (stereo in doubt) [Example 1(h), 3-[5-(3,5-Dimethyl-isoxazol-4-yl)-[1,2,4]oxadiazol-3-yl]-2-{[1-(2-mercapto-4-methyl-pentanoylamino)-cyclopentanecarbonyl]-amino}-propionic acid] | 151 to 153 |
| Cc1nc(-c2ccccc2)oc1CC(NC(=O)C1(NC(=O)[C@@H](S)C(C)C)CCCC1)C(=O)O (stereo in doubt) [Example 1(e), 2-{[1-(2-Mercapto-3-methyl-butanoylamino)-cyclopentanecarbonyl]-amino}-3-(4-methyl-2-phenyl-oxazol-5-yl)-propionic acid] | 227 to 229 |
| O=C(O)C(Cc1cc(-c2ccccc2)cs1)NC(=O)C1(NC(=O)[C@@H](S)Cc2ccccc2)CCCC1 (stereo in doubt) [Example 1(d), 2-{[1-(2-Mercapto-3-phenyl-propionylamino)-cyclopentanecarbonyl]-amino}-3-(4-phenyl-thien-2-yl)-propionic acid] | 133 to 136 |

Results, then the molecule that gave them:

| melting point [°C] | SMILES |
| --- | --- |
| 209 to 210 | CC(C)C[C@H](S)C(=O)N[C@@H](Cc1ccccc1)C(=O)N[C@@H](Cc1ccc(-c2cccs2)nc1)C(=O)O [Example 2(u), 2-[1-(2-Mercapto-4-methyl-pentanoylamino)-3-phenyl-propionylamino]-3-[6-(thien-2-yl)-pyridin-3-yl]-propionic acid] |
| 210 to 212 | CC(C)C[C@H](S)C(=O)N[C@@H](Cc1ccc(-c2cccs2)nc1)C(=O)N[C@@H](Cc1ccc(-c2cccs2)nc1)C(=O)O (stereo in doubt) [Example 2(w), 2-{2-(2-Mercapto-4-methyl-pentanoylamino)-3-[6-(thiophen-2-yl)-pyridin-3-yl]-propanoylamino}-3-[6-(thien-2-yl)-pyridin-3-yl]-propionic acid] |
| 185 to 187 | CC(C)C[C@H](S)C(=O)NC1(C(=O)NC(Cc2ccc(-c3nccs3)nc2)C(=O)O)CCCC1 (stereo in doubt) [Example 2(uu), 2-{[1-(2-Mercapto-4-methyl-pentanoylamino)-cyclopentanecarbonyl]-amino}-3-[6-(thiazol-2-yl)-pyridin-3-yl]-propionic acid] |
| 194 to 196 | CC(C)C[C@H](S)C(=O)NC(C)(C)C(=O)N[C@@H](Cc1ccc(-c2cccs2)nc1)C(=O)O (stereo in doubt) [Example 2(z), 2-[2-(2-Mercapto-4-methyl-pentanoylamino)-2-methyl-propionylamino]-3-[6-(thien-2-yl)-pyridin-3-yl]-propionic acid] |
| 175 to 177 | CSCC[C@H](S)C(=O)NC1(C(=O)NC(Cc2ccc(-c3cccs3)nc2)C(=O)O)CCCC1 (stereo in doubt) [Example 2(r), 2-{[1-(2-Mercapto-4-methylthio-butanoylamino)-cyclopentanecarbonyl]-amino}-3-[6-(thien-2-yl)-pyridin-3-yl]-propionic acid] |
| 200 to 202 | CC(C)C[C@H](S)C(=O)NC1(C(=O)NC(Cc2ccc(-c3ccco3)nc2)C(=O)O)CCCC1 (stereo in doubt) [Example 2(qq), 3-[6-(Furan-2-yl)-pyridin-3-yl]-2-{[1-(2-mercapto-4-methyl-pentanoylamino)-cyclopentanecarbonyl]-amino}-propionic acid] |
| 208 to 209 | O=C(O)[C@H](Cc1ccc(-c2ccsc2)nc1)NC(=O)C1(NC(=O)[C@@H](S)Cc2ccccc2)CCCC1 (stereo in doubt) [Example 2(l), 2-{[1-(2-Mercapto-3-phenyl-propionylamino)-cyclopentanecarbonyl]-amino}-3-[6-(thien-3-yl)-pyridin-3-yl]-propionic acid] |
| 219 to 220 | O=C(NC1(C(=O)N[C@@H](Cc2ccc(-c3cccs3)nc2)C(=O)O)CCCC1)C(S)Cc1ccc(O)cc1 (stereo in doubt) [Example 2(v), 2-({1-[3-(4-Hydroxy-phenyl)-2-mercapto-propanoylamino]-cyclopentanecarbonyl}-amino)-3-[6-(thien-2-yl)-pyridin-3-yl]-propionic acid] |
| 195 to 197 | CSCC[C@H](S)C(=O)NC1(C(=O)NC(Cc2ccc(-c3ccco3)nc2)C(=O)O)CCCC1 (stereo in doubt) [Example 2(tt), 3-[6-(Furan-2-yl)-pyridin-3-yl]-2-{[1-(2-mercapto-4-methylthiobutanoylamino)-cyclopentanecarbonyl]-amino}-propionic acid] |
| 165 to 168 | CC(C)C[C@H](S)C(=O)NC1(C(=O)NC(Cc2ccc(-c3cccnc3)nc2)C(=O)O)CCCC1 (stereo in doubt) [Example 2(o), 2-{[1-(2-Mercapto-4-methyl-pentanoylamino)-cyclopentanecarbonyl]-amino}-3-[6-(pyridin-3-yl)-pyridin-3-yl]-propanoic acid] |
